Test results: US12109184B2, “Personalized methods of treating cancer” (CANCER RESEARCH TECHNOLOGY LIMITED, priority 2020, dated 2024)

Columns and labels:
Assay type in all cases: cell-based
[1] = system: HCT116, SW480 and MDA-MB-468 cells; experiment: Cell counting during cysteine starvation, starvation-resistant cell lines
Protocol: (§1) The base medium formulation contained 0.2 mM L-histidine, 0.4 mM L-isoleucine, 0.4 mM L-leucine, 0.4 mM L-lysine, 0.2 mM L-phenylalanine, 0.4 mM L-threonine, 0.08 mM L-tryptophan, 0.4 mM L-valine, 0.2 mM L-arginine, 2 mM L-glutamine, 0.2 mM L-tyrosine, 0.4 mM L-alanine, 0.3 mM L-proline, 0.15 mM L-glutamic acid, 0.1 mM L-aspartic acid, 0.2 mM L-asparagine, and 0.4 mM glycine.
(§2) DAPI-stained cell nuclei were detected via microscopy.
(§3) AMD1 inhibitor sardomozide/SAM486A, GPX4 inhibitor RSL3, and CSE inhibitor beta-cyano-L-alanine were used.
(§4) For experiments using spermine oxidase (SMOX) and polyamine oxidase (PAOX) inhibitors or MTOB, cells were pre-treated with stated concentrations for 16 hours in complete medium. After pre-treatment, cells were washed in PBS, and treatment was continued in complete or cysteine-free medium for stated times. After treatment was finished, cells were fixed and stained as described above. For experiments using MTA, polyamines, GPX4 and CSE inhibitors, treatment started at the same time as cysteine starvation. For experiments involving hypoxic conditions, cells were seeded in normoxic conditions and allowed to adhere for 24 hours before control and cysteine starvation medium was added and cells were immediately transferred either to a humidified cell culture incubator set to 37° C. in 20% O2 (normoxia), or a hypoxia chamber set to 37° C. in 1% O2 (hypoxia) for the stated times. Cells were fixed immediately and stained as described above.

[2] = system: breast, colorectal and pancreatic cancer cell lines; experiment: Cell counting in complete or cysteine-free medium, cell lines not given; conditions: supplementation during cysteine starvation
Protocol: as §1, §2, §3, §4

MDA-MB-231 cells = experiment: Steady state metabolite measurements by LC-MS; conditions: medium lacking cysteine, supplement 0.2 mM
Protocol: Metabolomics experiments were performed as follows. Cells were seeded into 6-well plates (5×10^5-1.5×10^6 cells/mL, depending on time-course, triplicate wells per condition) in complete medium and adhered overnight. Cells were washed with PBS, and the relevant experimental media were added for the stated times. Duplicate wells were used for cell counting. Cell counts were used to normalize the volume of lysis solvent prior to metabolite extractions (2×10^6 cells/mL). Cells were washed quickly in PBS, then ice-cold lysis solvent (methanol 50%, acetonitrile 30%, water 20%) was added, and cells were scraped on ice. Lysates were transferred to 1.5 mL tubes on ice, vortexed, then spun by centrifugation at 15,000 rpm at 4° C. for 10 minutes. Supernatants were collected and stored at -80° C. for LC-MS analysis. Prepared samples were analyzed on an LC-MS platform consisting of an […] system and an ExactiveTM mass spectrometer. A Sequant® ZIC®-HILIC column (4.6 mm×150 mm, 3.5 μm) was used to separate the metabolites with the mobile phase using A=0.1% (v/v) formic acid in water and B=0.1% (v/v) formic acid in acetonitrile. A gradient program starting at 20% of A and linearly increasing to 80% at 30 min was used followed by washing (92% of A for 5 mins) and re-equilibration (20% of A for 10 min) steps. The total run time of the method was 45 min. The LC stream was desolvated and ionized in the HESI probe. The ExactiveTM mass spectrometer was operated in full scan mode over a mass range of 70-1,200 m/z at a resolution of 50,000 with polarity switching. The LC-MS raw data was converted into mzML files by using ProteoWizard and imported to MZMine 2.10 for peak extraction and sample alignment. An in-house database including all possible ^13C and ^15N isotopic m/z values of the relevant metabolites was used for the assignment of LCMS signals. Finally the peak areas were used for comparative quantification.

[3] = system: SW480 and MDA-MB-231 cells; experiment: Cell counting, rescue by cysteine precursors during cysteine starvation; conditions: supplement at 0.2 mM
Protocol: HCT116, SW480, MDA-MB-468, MDA-MB-231, AsPC-1, BxPC-3, CFPAC-1, MIAPaCa-2, PANC-1, Panc10.05, SW1990, U-251, LN-18, LN-229, T98G, U-343, A-172 cells were used. Cell lines were authenticated using Short Tandem Repeat (STR) profiling and tested for mycoplasma. Colorectal and breast cancer cell lines were grown in Dulbecco's Modified Eagle Medium (DMEM), pancreatic ductal adenocarcinoma (PDAC) cell lines were grown in Roswell Park Memorial institute (RPMI) 1640. All cell lines were supplemented with penicillin-streptomycin, amphotericin, 2 mM L-glutamine, and 10% fetal bovine serum (FBS). Cells were kept at 37° C. in 5% CO2 in a humidified cell culture incubator. A formulated medium lacking cysteine, cystine, methionine, and serine was used as a base for creating experimental media. The base medium formulation contained 0.2 mM L-histidine, 0.4 mM L-isoleucine, 0.4 mM L-leucine, 0.4 mM L-lysine, 0.2 mM L-phenylalanine, 0.4 mM L-threonine, 0.08 mM L-tryptophan, 0.4 mM L-valine, 0.2 mM L-arginine, 2 mM L-glutamine, 0.2 mM L-tyrosine, 0.4 mM L-alanine, 0.3 mM L-proline, 0.15 mM L-glutamic acid, 0.1 mM L-aspartic acid, 0.2 mM L-asparagine, and 0.4 mM glycine. The base medium was supplemented with 10% dialyzed FBS, penicillin-streptomycin, and amphotericin. To ensure an adequate supply of vitamin B6 (a crucial co-factor for de novo cysteine synthesis), base medium was supplemented with additional 20 μM vitamin B6. The control experimental medium was the base medium supplemented with 0.4 mM L-cysteine, 0.2 mM L-methionine, and 0.4 mM L-serine. The cysteine starvation (−Cys) experimental medium was base medium supplemented with 0.2 mM L-methionine and 0.4 mM L-serine.
Cells were seeded at 6×10^4 cells per well into 24-well plates (triplicate wells per condition) in the relevant complete medium and adhered for a full 24-hour period. A ‘time-0’ plate was included to record the starting cell number to calculate relative cell numbers. Cells were washed once with phosphate-buffered saline (PBS) before receiving experimental medium containing or lacking the specified amino acids, metabolites, or drugs. At the stated time-points the medium was removed, cells were fixed in a 4% formalin-PBS solution. Cells were then washed and stored in PBS before staining with 4′,6-diamidino-2-phenylindole (DAPI)-Triton™ X100-PBS solution for 1 hour, followed by storage in PBS at 4° C. until further analysis. DAPI-stained cell nuclei were detected via microscopy.
Homocysteine, cystathionine, glutathione, putrescine, spermine, spermidine, GPX4 inhibitor ML210, SMOX inhibitor MDL 72527, PAOX inhibitor diminazene aceturate, ferrostatin-1 and erastin were used. AMD1 inhibitor sardomozide/SAM486A, GPX4 inhibitor RSL3, and CSE inhibitor beta-cyano-L-alanine were used. […]

[4] = system: MDA-MB-231, MIAPaCa-2 and PANC-1 cells; experiment: Cell counting during cysteine starvation, starvation-sensitive cell lines
Protocol: as §1, §2, §3, §4

[5] = system: MTAP-deleted HCT116 cells; experiment: Cell counting during cysteine starvation, MTAP-deleted HCT116
Description: [NT] Successfully transfected cells were selected with puromycin and grown as clonal colonies. Clones were selected based initially on MTA efflux measured by liquid chromatography mass spectrometry (LC-MS). Clones with greatest MTA efflux were selected, and methylthioadenosine phosphorylase knockout (MTAP-KO) was then confirmed by western blot. MTAP-KO HCT116 cells were transfected with pCMV-Hygro-MTAP and pCMV-Hygro-negative control vector, selected using hygromycin B, and grown as clonal colonies. Clones were selected based initially on MTA efflux measured by LC-MS. Clones with low MTA efflux were selected, then MTAP re-expression was confirmed by western blot. […] DAPI-stained cell nuclei were detected via microscopy. […] For experiments using spermine oxidase (SMOX) and polyamine oxidase (PAOX) inhibitors or MTOB, cells were pre-treated with stated concentrations for 16 hours in complete medium. After pre-treatment, cells were washed in PBS, and treatment was continued in complete or cysteine-free medium for stated times. After treatment was finished, cells were fixed and stained as described above. For experiments using MTA, polyamines, GPX4 and CSE inhibitors, treatment started at the same time as cysteine starvation. For experiments involving hypoxic conditions, cells were seeded in normoxic conditions and allowed to adhere for 24 hours before control and cysteine starvation medium was added and cells were immediately transferred either to a humidified cell culture incubator set to 37° C. in 20% O2 (normoxia), or a hypoxia chamber set to 37° C. in 1% O2 (hypoxia) for the stated times. Cells were fixed immediately and stained as described above.

[6] = system: MTAP-expressing HCT116 cells; experiment: Cell counting during cysteine starvation, MTAP-expressing HCT116; conditions: SMOX inhibitor, PAOX inhibitor or MTOB supplementation
Description: [NT] Successfully transfected cells were selected with puromycin and grown as clonal colonies. Clones were selected based initially on MTA efflux measured by liquid chromatography mass spectrometry (LC-MS). Clones with greatest MTA efflux were selected, and methylthioadenosine phosphorylase knockout (MTAP-KO) was then confirmed by western blot. MTAP-KO HCT116 cells were transfected with pCMV-Hygro-MTAP and pCMV-Hygro-negative control vector, selected using hygromycin B, and grown as clonal colonies. Clones were selected based initially on MTA efflux measured by LC-MS. Clones with low MTA efflux were selected, then MTAP re-expression was confirmed by western blot. […] DAPI-stained cell nuclei were detected via microscopy. For experiments using spermine oxidase (SMOX) and polyamine oxidase (PAOX) inhibitors or MTOB, cells were pre-treated with stated concentrations for 16 hours in complete medium. After pre-treatment, cells were washed in PBS, and treatment was continued in complete or cysteine-free medium for stated times. After treatment was finished, cells were fixed and stained as described above. For experiments using MTA, polyamines, GPX4 and CSE inhibitors, treatment started at the same time as cysteine starvation. For experiments involving hypoxic conditions, cells were seeded in normoxic conditions and allowed to adhere for 24 hours before control and cysteine starvation medium was added and cells were immediately transferred either to a humidified cell culture incubator set to 37° C. in 20% O2 (normoxia), or a hypoxia chamber set to 37° C. in 1% O2 (hypoxia) for the stated times. Cells were fixed immediately and stained as described above.

`N#CC[C@H](N)C(=O)O` [beta-cyano-L-alanine] was tested, and the “response to CSE inhibition during cysteine starvation” value ([1]; HCT116, CSE inhibitor 0.5 mM or 1 mM, 48 h) was “only a modest response” and the “sensitivity to cysteine starvation” value ([1]; SW480 and MDA-MB-468, CSE inhibitor 0.5 mM or 1 mM, 48 h) was “increased the sensitivity to cysteine starvation”.
`N[C@@H](CCSC[C@H](N)C(=O)O)C(=O)O` [cystathionine] was tested, and the “rescue from cysteine starvation-induced cell death (summary in discussion)” value [2] was “rescued from starvation-induced cell death”, the intracellular cysteine levels (MDA-MB-231 cells) was “moderate increases” and the “intracellular homocysteine and cystathionine levels” value (MDA-MB-231 cells) was “significantly increased”. The “intracellular γ-glutamylcysteine and GSH levels” value (MDA-MB-231 cells) was “more marked increases” and the “rescue of survival/proliferation during cysteine starvation” value [3] was “substantial rescue”.
For `CC(=O)NCC(=O)O.CC(=O)NCC(=O)O.N=C(N)c1ccc(N=NNc2ccc(C(=N)N)cc2)cc1` [diminazene aceturate], the “cell death during cysteine starvation” value ([4]; SMOX inhibitor 50 μM or PAOX inhibitor 10, 40, 80 μM, 16 h pre-treatment then −Cys) was “prevented cell death”, the “cell survival during cysteine starvation” value ([5]; SMOX inhibitor, PAOX inhibitor or MTOB supplementation) was “rescued cell survival” and the “cell survival and growth under polyamine treatment concurrent with cysteine starvation” value ([1]; SMOX and PAOX inhibitors with spermidine or spermine, −Cys) was “restored HCT116, SW480, and MDA-MB-468 cell survival and growth”. For the same compound, the “advantage during cysteine starvation” value ([1]; SMOX or PAOX inhibitor, 16 h pre-treatment then −Cys) was “little or no additional advantage” and the “impact on cell survival during cysteine starvation” value [6] was “little impact”.
In the case of `CCOC(=O)c1ccc(NC2CCCCC2)c(N)c1` [ferrostatin, ferrostatin-1], the “proliferation during cysteine starvation” value ([4]; ferrostatin 1 μM) was “did not restore proliferation”, the “cell death in response to cysteine starvation” value ([4]; sensitive cells, ferrostatin 1 μM, 24 h and 72 h) was “prevented cell death” and the “rescue of increased sensitivity to cysteine starvation” value ([5]; ferrostatin) was “rescued”. For the same compound, the “impact on response to cysteine starvation” value ([1]; more resistant cells, ferrostatin 1 μM, 24 h and 72 h) was “little impact”.
